Results published in PubChem BioAssay (NCI).
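Cells were grown in 96-well plates and exposed to each compound for 48 hours at five concentrations; endpoints were interpolated linearly between bracketing concentrations, or set to the highest concentration if not reached. GI50 marks 50% less growth. At the TGI there is no net growth.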

Tests used:
Assay in all cases: NCI-60 cell line screen, 48 h
[1] = tested on: KM12 colon
[2] = tested on: HL-60(TB) leukemia
[3] = tested on: RXF 393 renal
[4] = tested on: SN12C renal
[5] = tested on: SF-539 CNS
[6] = tested on: OVCAR-8 ovarian
[7] = tested on: RPMI-8226 leukemia
[8] = tested on: COLO 205 colon
[9] = tested on: SK-MEL-5 melanoma
[10] = tested on: PC-3 prostate

| Structure (SMILES) | GI50 [1] | TGI [1] | GI50 [2] | TGI [2] | GI50 [3] | TGI [3] | GI50 [4] | TGI [4] | GI50 [5] | TGI [5] | GI50 [6] | TGI [6] | GI50 [7] | TGI [7] | GI50 [8] | TGI [8] | GI50 [9] | TGI [9] | GI50 [10] | TGI [10] |
| --- | --- | --- | --- | --- | --- | --- | --- | --- | --- | --- | --- | --- | --- | --- | --- | --- | --- | --- | --- | --- |
| O=C(Nc1ccc(-n2cc(-c3ccncc3)c(-c3ccc(O)c(Cl)c3)n2)cc1)Nc1ccc(Cl)c(C(F)(F)F)c1 | 3.8 µM | 12.8 µM | 2.54 µM | 6.27 µM | 1.67 µM | 3.56 µM | 4.28 µM | 17.2 µM | 2.58 µM | 12.5 µM | 4.11 µM | 21.3 µM | 1.99 µM | 5.32 µM | 6.23 µM | 22.9 µM | 2.87 µM | 10.7 µM | 2.49 µM | 8.74 µM |
| c1ccc(C(NC2=NCCO2)c2ccccc2)cc1 |  | > 10 µM |  | > 10 µM |  | > 10 µM |  | > 10 µM |  | > 10 µM |  | > 10 µM |  | > 10 µM |  | > 10 µM |  | > 10 µM |  | > 10 µM |
| C/C(=N\NC(=S)N(C)C)c1nc2ncccc2[nH]1 |  |  |  | 1.32 µM |  | > 100 µM |  | > 100 µM |  | 5.11 µM |  | > 100 µM |  | > 100 µM |  | 23.9 µM |  | 1.87 µM |  | > 100 µM |
| OCCCNc1ncnc2[nH]ncc12 |  | > 100 µM |  | > 100 µM |  | > 100 µM |  | > 100 µM |  | > 100 µM |  | > 100 µM |  | > 100 µM |  | > 100 µM |  | > 100 µM |  | > 100 µM |
| C/C(=N\NC(=S)NCCCCNC(=S)N/N=C(\C)c1ccccn1)c1ccccc1 |  | > 100 µM |  |  |  | > 23.1 µM |  | 4.43 µM |  | 3.86 µM |  | 5.63 µM |  | 14.3 µM |  |  |  |  |  | > 100 µM |
| CC(C)C(=O)CC(c1ccc(Cl)cc1)N1N=C(C(C)C)CC1c1ccc(Cl)cc1 (configuration not stated) |  | > 100 µM |  | 76.8 µM |  | > 100 µM |  | > 100 µM |  | > 42.7 µM |  | > 65.8 µM |  | > 100 µM |  | > 100 µM |  | > 100 µM |  |  |
| Cc1c(Cl)nc(Cl)nc1Cl |  | 6.15 µM |  |  |  | 4.07 µM |  | 7.53 µM |  | 5.62 µM |  | 18.9 µM |  |  |  | 1.15 µM |  | 5.8 µM |  | 5.35 µM |
| CCCn1cc2c(SC)nc(SC)nc2n1 |  | > 100 µM |  | > 100 µM |  | > 100 µM |  | > 100 µM |  | > 100 µM |  | > 100 µM |  | > 100 µM |  | > 100 µM |  | > 100 µM |  |  |
| Cn1ccc(C(=O)NCCN(CCNC(=O)c2ccn(C)c(=O)c2O)CCNC(=O)c2ccn(C)c(=O)c2O)c(O)c1=O |  | > 100 µM |  | > 100 µM |  | > 100 µM |  | > 100 µM |  | > 100 µM |  | > 100 µM |  | > 100 µM |  | > 100 µM |  | > 100 µM |  | > 100 µM |
| CCOC(=O)C(Cc1cn(C(C)=O)c2ccccc12)P(=O)(OCC)OCC (configuration not stated) |  |  |  |  |  |  |  | > 100 µM |  |  |  | > 100 µM |  | > 100 µM |  | > 100 µM |  | > 100 µM |  | > 100 µM |
| Cc1[nH]c(=O)[nH]c(=O)c1/C=C/C(=O)NC(CO)CS(=O)Cc1ccccc1 (configuration not stated) |  | > 300 µM |  | > 300 µM |  | > 300 µM |  | > 300 µM |  | > 300 µM |  | > 300 µM |  | > 300 µM |  | > 300 µM |  | > 300 µM |  |  |
